Assay in all cases: biochemical
Common to all, as to parameters: KINOMEscan competition binding panel (Eurofins DiscoverX), single concentration, percent inhibition
Holding throughout (settings): read-out: 15 at 1 µM % inhibition

One test has as its target ALK(L1196M) (Homo sapiens, UniProt Q9UM73, L1196M). In a few lines: (§1)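 A single 1 µM concentration of each compound is screened across upwards of 400 human kinases using the KINOMEscan format.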
A further test concerns the target CDK3 (Homo sapiens, UniProt Q00526). In a few lines:
as §1

The next test concerns the target CDK5 (Homo sapiens, UniProt Q00535). In a few lines:
as §1

A further test deals with T1, DCAMKL2 (Homo sapiens, UniProt Q8N568).
T1 construct: gene DCLK2
T1 sequence (Q8N568 whole entry): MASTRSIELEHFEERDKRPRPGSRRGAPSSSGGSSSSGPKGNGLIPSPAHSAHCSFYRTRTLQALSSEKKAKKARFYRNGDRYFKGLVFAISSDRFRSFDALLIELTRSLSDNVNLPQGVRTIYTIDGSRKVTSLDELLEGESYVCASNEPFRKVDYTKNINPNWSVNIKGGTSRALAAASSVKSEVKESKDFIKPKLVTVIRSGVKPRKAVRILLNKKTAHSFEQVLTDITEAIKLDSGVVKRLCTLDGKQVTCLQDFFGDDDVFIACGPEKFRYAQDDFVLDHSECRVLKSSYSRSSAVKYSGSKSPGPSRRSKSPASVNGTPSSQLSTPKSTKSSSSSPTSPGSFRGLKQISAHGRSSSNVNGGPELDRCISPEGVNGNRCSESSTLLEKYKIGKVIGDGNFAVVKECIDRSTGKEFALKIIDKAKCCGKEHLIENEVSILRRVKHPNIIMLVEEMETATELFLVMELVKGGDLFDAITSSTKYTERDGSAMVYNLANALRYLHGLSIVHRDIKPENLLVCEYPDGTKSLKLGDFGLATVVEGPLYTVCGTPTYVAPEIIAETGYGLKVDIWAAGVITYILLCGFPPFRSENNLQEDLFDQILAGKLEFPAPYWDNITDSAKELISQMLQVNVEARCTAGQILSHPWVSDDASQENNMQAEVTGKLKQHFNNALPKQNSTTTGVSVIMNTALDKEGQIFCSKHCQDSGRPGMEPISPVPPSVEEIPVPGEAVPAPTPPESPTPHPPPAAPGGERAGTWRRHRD
In a few lines:
as §1

Another test deals with T2, DLK (Homo sapiens, UniProt Q12852).
T2 construct: gene MAP3K12
A digest of the protocol: as §1

For the next test, the target named is T3, DRAK1 (Homo sapiens, UniProt Q9UEE5).
T3 construct: gene STK17A
In a few lines: as §1

The next test deals with T4, ERK4 (Homo sapiens, UniProt P31152).
T4 construct: gene MAPK4
A digest of the protocol:
as §1

Another test has as its target FLT1 (Homo sapiens, UniProt P17948). In a few lines:
as §1

The target in a further test is FLT3(K663Q) (Homo sapiens, UniProt P36888, K663Q). In a few lines:
as §1

The target in a further test is GSK3B (Homo sapiens, UniProt P49841). In a few lines:
as §1

The next test addresses MET(Y1235D) (Homo sapiens, UniProt P08581, Y1235D). A digest of the protocol: as §1
A further test has as its target MUSK (Homo sapiens, UniProt O15146). A digest of the protocol: as §1
The target in another test is PIKFYVE (Homo sapiens, UniProt Q9Y2I7). In a few lines:
as §1

A further test addresses T5, PKAC-alpha (Homo sapiens, UniProt P17612).
T5 construct: gene PRKACA
A digest of the protocol: as §1

The next test concerns the target PRKCI (Homo sapiens, UniProt P41743). In a few lines: as §1
For another test, the target named is T6, PRP4 (Homo sapiens, UniProt Q13523).
T6 construct: gene PRPF4B
In a few lines: as §1

A further test addresses SRC (Homo sapiens, UniProt P12931). In a few lines:
as §1

The next test has as its target TGFBR1 (Homo sapiens, UniProt P36897). In a few lines:
as §1

The target in another test is TLK1 (Homo sapiens, UniProt Q9UKI8). In a few lines:
as §1

A further test concerns the target T7, TRKA (Homo sapiens, UniProt P04629).
T7 construct: gene NTRK1
A digest of the protocol:
as §1

For the next test, the target named is ULK3 (Homo sapiens, UniProt Q6PHR2). In a few lines:
as §1

The next test has as its target WEE1 (Homo sapiens, UniProt P30291). A digest of the protocol: as §1
The target of a further test is WNK2 (Homo sapiens, UniProt Q9Y3S1). In a few lines:
as §1

Another test addresses WNK4 (Homo sapiens, UniProt Q96J92). A digest of the protocol: as §1

Sequence of WNK2 (Q9Y3S1 whole entry): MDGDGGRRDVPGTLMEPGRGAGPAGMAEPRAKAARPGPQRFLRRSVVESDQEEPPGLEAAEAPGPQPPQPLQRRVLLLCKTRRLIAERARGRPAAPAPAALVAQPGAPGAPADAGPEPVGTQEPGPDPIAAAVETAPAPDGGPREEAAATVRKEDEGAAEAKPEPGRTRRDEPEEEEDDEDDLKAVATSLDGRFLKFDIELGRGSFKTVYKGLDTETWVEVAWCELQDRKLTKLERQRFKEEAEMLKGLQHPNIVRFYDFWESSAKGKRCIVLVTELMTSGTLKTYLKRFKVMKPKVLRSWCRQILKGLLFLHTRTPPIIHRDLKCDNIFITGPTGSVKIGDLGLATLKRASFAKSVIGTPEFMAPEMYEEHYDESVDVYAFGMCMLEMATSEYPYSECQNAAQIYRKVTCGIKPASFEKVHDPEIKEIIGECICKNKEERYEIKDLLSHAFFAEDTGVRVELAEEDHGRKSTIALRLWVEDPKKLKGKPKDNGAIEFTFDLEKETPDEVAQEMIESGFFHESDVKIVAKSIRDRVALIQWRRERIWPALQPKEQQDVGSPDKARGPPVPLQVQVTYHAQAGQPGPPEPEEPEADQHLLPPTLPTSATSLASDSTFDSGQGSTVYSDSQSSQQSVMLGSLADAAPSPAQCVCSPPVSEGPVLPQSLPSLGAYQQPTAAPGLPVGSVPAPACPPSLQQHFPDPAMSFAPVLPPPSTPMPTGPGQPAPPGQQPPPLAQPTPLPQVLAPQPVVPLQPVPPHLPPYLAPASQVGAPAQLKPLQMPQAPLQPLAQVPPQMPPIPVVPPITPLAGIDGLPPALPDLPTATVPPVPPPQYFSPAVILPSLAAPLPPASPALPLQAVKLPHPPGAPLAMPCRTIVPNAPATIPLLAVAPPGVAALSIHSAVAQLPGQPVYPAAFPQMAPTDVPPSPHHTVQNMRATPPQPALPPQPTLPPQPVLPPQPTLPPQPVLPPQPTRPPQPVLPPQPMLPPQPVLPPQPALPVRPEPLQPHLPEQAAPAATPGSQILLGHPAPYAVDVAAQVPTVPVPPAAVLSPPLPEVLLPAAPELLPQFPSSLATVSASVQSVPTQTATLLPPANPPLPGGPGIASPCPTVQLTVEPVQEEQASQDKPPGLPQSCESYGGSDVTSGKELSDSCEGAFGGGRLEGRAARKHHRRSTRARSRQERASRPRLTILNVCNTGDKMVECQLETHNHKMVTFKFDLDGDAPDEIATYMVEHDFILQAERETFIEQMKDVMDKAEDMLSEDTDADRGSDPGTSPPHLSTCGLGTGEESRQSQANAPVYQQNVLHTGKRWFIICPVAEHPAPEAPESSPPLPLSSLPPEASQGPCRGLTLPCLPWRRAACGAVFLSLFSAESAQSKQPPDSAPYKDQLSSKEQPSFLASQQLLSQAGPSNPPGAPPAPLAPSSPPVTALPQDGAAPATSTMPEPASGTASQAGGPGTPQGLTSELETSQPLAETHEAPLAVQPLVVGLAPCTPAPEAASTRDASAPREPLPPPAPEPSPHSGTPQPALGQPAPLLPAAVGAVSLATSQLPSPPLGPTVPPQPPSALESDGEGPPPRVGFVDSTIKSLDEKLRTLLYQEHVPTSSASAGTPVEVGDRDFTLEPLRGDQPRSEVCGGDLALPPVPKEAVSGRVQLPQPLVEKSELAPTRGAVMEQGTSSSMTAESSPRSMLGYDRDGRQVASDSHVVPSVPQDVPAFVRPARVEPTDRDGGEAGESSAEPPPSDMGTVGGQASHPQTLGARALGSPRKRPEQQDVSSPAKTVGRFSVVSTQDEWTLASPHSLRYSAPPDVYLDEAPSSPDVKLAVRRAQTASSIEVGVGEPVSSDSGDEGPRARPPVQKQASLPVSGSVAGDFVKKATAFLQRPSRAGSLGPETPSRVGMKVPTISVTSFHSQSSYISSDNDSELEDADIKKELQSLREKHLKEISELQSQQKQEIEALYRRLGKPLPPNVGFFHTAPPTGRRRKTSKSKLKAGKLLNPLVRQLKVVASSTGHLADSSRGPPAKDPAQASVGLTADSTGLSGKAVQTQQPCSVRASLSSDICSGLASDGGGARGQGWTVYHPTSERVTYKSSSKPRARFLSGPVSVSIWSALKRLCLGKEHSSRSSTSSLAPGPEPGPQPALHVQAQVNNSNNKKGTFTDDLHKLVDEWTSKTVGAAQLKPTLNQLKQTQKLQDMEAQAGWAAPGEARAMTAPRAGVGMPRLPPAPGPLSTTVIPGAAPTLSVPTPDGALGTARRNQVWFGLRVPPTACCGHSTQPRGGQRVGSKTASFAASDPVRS
Sequence of WNK4 (Q96J92 whole entry): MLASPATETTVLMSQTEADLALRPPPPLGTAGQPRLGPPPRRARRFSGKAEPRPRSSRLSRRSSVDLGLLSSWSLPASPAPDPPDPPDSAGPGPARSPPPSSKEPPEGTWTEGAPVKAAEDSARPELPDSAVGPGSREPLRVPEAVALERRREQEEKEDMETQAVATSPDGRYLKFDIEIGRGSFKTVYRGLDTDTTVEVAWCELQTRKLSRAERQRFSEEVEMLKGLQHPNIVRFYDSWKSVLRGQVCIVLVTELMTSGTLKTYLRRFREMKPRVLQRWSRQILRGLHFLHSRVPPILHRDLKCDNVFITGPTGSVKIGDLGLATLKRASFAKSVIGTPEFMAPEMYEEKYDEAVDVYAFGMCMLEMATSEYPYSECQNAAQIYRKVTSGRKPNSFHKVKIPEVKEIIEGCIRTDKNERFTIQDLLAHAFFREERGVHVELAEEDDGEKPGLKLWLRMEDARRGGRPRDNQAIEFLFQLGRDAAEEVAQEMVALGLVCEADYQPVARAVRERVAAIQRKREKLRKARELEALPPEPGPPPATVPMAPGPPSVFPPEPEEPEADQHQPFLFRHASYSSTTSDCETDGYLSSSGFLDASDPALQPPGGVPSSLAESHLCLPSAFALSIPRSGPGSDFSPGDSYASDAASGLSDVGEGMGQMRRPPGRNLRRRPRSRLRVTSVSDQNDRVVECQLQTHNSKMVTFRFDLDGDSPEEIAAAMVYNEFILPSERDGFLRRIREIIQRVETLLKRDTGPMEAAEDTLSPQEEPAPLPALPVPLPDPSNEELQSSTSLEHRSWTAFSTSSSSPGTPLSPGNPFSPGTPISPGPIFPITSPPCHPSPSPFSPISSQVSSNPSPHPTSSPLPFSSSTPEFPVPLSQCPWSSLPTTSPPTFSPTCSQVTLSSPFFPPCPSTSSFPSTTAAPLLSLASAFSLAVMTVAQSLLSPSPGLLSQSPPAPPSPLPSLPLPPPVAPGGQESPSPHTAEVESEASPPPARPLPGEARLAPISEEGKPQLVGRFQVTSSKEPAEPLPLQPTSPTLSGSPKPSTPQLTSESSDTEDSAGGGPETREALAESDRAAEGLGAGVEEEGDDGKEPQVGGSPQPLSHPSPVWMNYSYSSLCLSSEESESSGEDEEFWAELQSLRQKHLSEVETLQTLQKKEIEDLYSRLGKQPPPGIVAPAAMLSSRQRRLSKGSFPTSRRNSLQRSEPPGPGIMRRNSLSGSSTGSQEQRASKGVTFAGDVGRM
Sequence of PRKCI (P41743 whole entry): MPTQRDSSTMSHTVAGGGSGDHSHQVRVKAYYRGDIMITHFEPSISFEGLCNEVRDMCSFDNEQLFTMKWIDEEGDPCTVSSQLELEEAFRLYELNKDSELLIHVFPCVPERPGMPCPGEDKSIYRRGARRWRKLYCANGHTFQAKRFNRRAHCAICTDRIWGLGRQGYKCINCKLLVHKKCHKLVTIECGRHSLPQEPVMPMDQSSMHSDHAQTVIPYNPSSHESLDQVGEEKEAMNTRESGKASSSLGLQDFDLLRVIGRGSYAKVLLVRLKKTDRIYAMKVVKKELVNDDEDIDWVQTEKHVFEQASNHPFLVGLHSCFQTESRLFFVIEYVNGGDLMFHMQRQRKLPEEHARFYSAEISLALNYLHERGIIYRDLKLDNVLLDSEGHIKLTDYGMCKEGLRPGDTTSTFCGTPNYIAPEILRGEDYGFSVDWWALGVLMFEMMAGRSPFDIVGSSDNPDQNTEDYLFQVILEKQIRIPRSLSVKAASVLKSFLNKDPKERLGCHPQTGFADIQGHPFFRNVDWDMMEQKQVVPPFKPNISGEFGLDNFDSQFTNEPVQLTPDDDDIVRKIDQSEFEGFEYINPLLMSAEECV

For the compound `CNS(=O)(=O)c1ccc(N(C)C)c(Nc2nc(C)nc3cc(OC)c(OC)cc23)c1` [compound 15, 3-((6,7-dimethoxy-2-methylquinazolin-4-yl)amino)-4-(dimethylamino)-N-methylbenzenesulfonamide], the inhibition (usually the change of the read-out against control, counted positive when it falls) at 1 µM is 12% at ALK(L1196M); 56% on CDK3; 3% at CDK5; 0% at DCAMKL2; 12% at DLK; 0% at DRAK1. Moreover, the inhibition at 1 µM stood at 0% at ERK4; 0% on FLT1; 10% on FLT3(K663Q); 17% at GSK3B; 0% at MET(Y1235D); 0% at MUSK. Moreover, the inhibition at 1 µM on PIKFYVE was 13%; at PKAC-alpha, 0%; at PRKCI it was 25%; at PRP4, 52%; on SRC, 0%; at TGFBR1 it was 0%. Further, the inhibition at 1 µM on TLK1 was 9%; on TRKA it was 37%; at ULK3, 23%; at WEE1, 7%; at WNK2, 14%; at WNK4, 0%.
